Assay results: patent US11013830B2, “5-hydroxytryptamine 1B receptor-stimulating agent for enhancing in vivo engraftment potential” (INSTITUT PASTEUR, priority 2015, dated 2021)

How the values were obtained:
muscle stem cells [1] = conditions: fluoxetine 18 mg/Kg for 6 weeks; after 21 days; n=8; placebo 25.7%±8.7
Protocol: Mice were anesthetised and injured with cardiotoxin 18 hours before grafting in the tibialis anterior. Before grafting the mice were anesthetised again and grafted with 10,000 cells in 40 nl in PBS. Mice were kept for 28 days until muscle regeneration was complete. […] Mice were sacrificed 5 weeks after the injection.
Tibialis anterior was carefully dissected and snap frozen in liquid-nitrogen-cooled isopentane for a few minutes and stored at −80° C. prior to cryosectioning (10 μm sections). Sections were kept at room temperature overnight before staining. Sections were then rehydrated in PBS for 10 minutes and fixed in 10% formalin for 3 minutes. The sections were then routinely stained with PLAP antibody manually.
Fluoxetine treatment was provided at 18 mg/Kg for 6 weeks to Rag^−/−γc^−/− mice. The tibialis anterior (TA) was injured and 18 h post injury 10,000 satellite cells (SC) coming from Tg:Pax7nGFP:PLAP:MyHC2E3FLacZ triple transgenic mice were grafted to the Rag^−/−γc^−/− mice pre-treated with fluoxetine.

bone marrow cells = experiment: Engraftment of Tg:ActinGFP bone marrow cells in irradiated Rag-/-γc-/- mice, GFP+ cells by cytometry; type: in vivo
Source text: For bone marrow analysis, animals were sacrificed and bone marrow was flushed and filtered through 40 μm cell strainer. The bulk was then directly assessed using Gallios A94303 (Beckman Coulter) and analysed with Kaluza flow cytometry software.
In order to investigate the potential effect of fluoxetine and vortioxetine on the bone marrow engraftment potential, Rag^−/−γc^−/− immunodeficient mice were used. These mice were irradiated at 95 cGy and then injected intravenously with 2 million cells taken from Tg:ActinGFP mouse (Okabe et al., 1997), to track the fate of the grafted cells.
Rag^−/−γc^−/− mice were treated with fluoxetine per os at 18 mg/Kg for 6 weeks. […] The number of GFP+ cells were investigated after 5 weeks in the bone marrow (the treatment was never discontinued). 63.7%±6.5 of GFP+ cells were detected in the placebo mice and 80.7%±8.4 GFP+ cells in the fluoxetine treated mice (p=0.0023, n=7, FIG. 2b,c). There was thus a 25% increase in engraftment efficiency in the fluoxetine treated animals.
To investigate the potential effect of vortioxetine on the engraftment potential, the same approach was used. The Rag^−/−γc^−/− were treated for 12 days by intra peritoneal injections at 20 mg/Kg. Twelve days after the beginning of the treatment, the mice were irradiated at 95 cGy and intravenously grafted with 2 million freshly isolated bone marrow cells from Tg:ActinGFP. 5 weeks after grafting the mice were sacrificed and bone marrow was flushed and analysed (FIG. 2d). The number of GFP+ cells was investigated after 5 weeks in the bone marrow (the treatment was never discontinued). 65.8%±5.5 cells were found in the placebo mice while 80.2%±5.8 cells were found in the vortioxetine treated animals (p=0.0079, n=5, FIG. 2e). There was thus a 21% increase in engraftment potential of bone marrow cells after vortioxetine treatment.
To further characterise the timing of vortioxetine beneficial effects, the previous experiment was repeated without 12 days of pre-treatment (FIG. 2e,f). Rag^−/−γc^−/− were irradiated and grafted 2 hours post irradiation fresh bone marrow from Tg:ActinGFP mice. The same placebo was used displaying 65.8%±5.5 of GFP+ cells and 77.2%7.6 GFP+ cells in the vortioxetine treated animals at the time of the irradiation (p=0.04, n=5, FIG. 2e,g). A similar increase in engraftment potential (17%) was observed when animals were not pre-treated.

muscle stem cells [2] = experiment: Engraftment of grafted muscle stem cells (satellite cells) in cardiotoxin-injured tibialis anterior of Rag-/-γC-/- mice; type: in vivo; conditions: 28 days post injury
Protocol: For image analysis, ImageJ 1.46r software was using between 10 different photos randomly taken per section and 3 sections minimum per experimental group. The pictures were converted in a binary image and then the pixel values were collected. For fibre size, the sections were immunostained with rabbit anti Laminin (Sigma-Aldrich #L9393) diluted at 1/200, overnight at 4° C. Secondary Donkey ant Rabbit 488 (DL488 JacksonImmuno #711486152) were used at 1/200 45 minutes at room temperature. The fibre perimeter was done automatically by using Pixcavator® software.
In order to investigate the potential effect of fluoxetine and vortioxetine on the muscle engraftment potential, Rag^−/−γC^−/− immunodeficient mice (Sanchez et al., 2013) were used in this study. Mice were injured with cardiotoxin in the tibialis anterior (TA) and injected with 10,000 satellite cells (SC) 24 hours after the injury. The satellite cells (SC) were obtained from Tg:Pax7nGFP::PLAP mice (Deprimo et al., 1996; Rocheteau et al., 2012), allowing the prospective isolation of a pure population of SC by FACS (Pax7 being a specific marker of SC) and the follow up (PLAP placental alkaline phosphatase being an ubiquitous marker). The TA had been sampled 28 days post engraftment and the number of PLAP fibres was counted.
The Rag^−/−γC^−/− were treated for 6 weeks with fluoxetine per os at 18 mg/Kg at the time of the graft and the treatment continued during the regeneration process (FIG. 1a). When regeneration was completed 28 days post injury, the percentage of PLAP positive fibres was 20.5%±6.5 against 36%±6.2 in the treated animals (p=0.016; n=5, FIG. 1b-d).
To investigate the potential effect of vortioxetine on the engraftment potential, the same approach was used. The Rag^−/−γC^−/− were treated for 12 days by intra peritoneal injections at 20 mg/Kg. Twelve days after the beginning of the treatment, the mice were injured and grafted with Pax7nGFP:PLAP SC. The treatment was continuous during the entire regenerative process (FIG. 1e). 28 days post injury the TA were sampled and stained for Laminin and PLAP. 19%±7.7 fibres were PLAP+ after placebo treatment against 36.1%±5.7 in the vortioxetine treated animals (p=0.028, n=4, FIG. 1f-h).

SMILES	percentage of fibers PLAP+ (coming from the graft) (muscle stem cells [1])	GFP+ cells in the bone marrow (bone marrow cells; fluoxetine per os 18 mg/Kg for 6 weeks before irradiation/graft, never discontinued, 5 weeks after grafting, n=7, placebo 63.7%±6.5)	increase in engraftment efficiency versus placebo (bone marrow cells; fluoxetine per os 18 mg/Kg, 6 weeks pre-treatment, 5 weeks after grafting)	percentage of PLAP positive fibres (muscle stem cells [2]; fluoxetine per os 18 mg/Kg for 6 weeks before graft and continued, n=5, placebo 20.5%±6.5)	engraftment potential of the injected SC versus placebo (muscle stem cells [2]; fluoxetine per os 18 mg/Kg, 6 weeks pre-treatment)	increase in engraftment potential of bone marrow cells versus placebo (bone marrow cells; vortioxetine 20 mg/Kg, 12 days pre-treatment, 5 weeks after grafting)	GFP+ cells in the bone marrow (bone marrow cells; vortioxetine intra peritoneal 20 mg/Kg for 12 days before irradiation/graft, never discontinued, 5 weeks after grafting, n=5, placebo 65.8%±5.5)	GFP+ cells in the bone marrow (bone marrow cells; vortioxetine started at the time of the irradiation, without 12 days of pre-treatment, 5 weeks after grafting, n=5, placebo 65.8%±5.5)	increase in engraftment potential versus placebo (bone marrow cells; vortioxetine, animals not pre-treated)	percentage of PLAP+ fibres (muscle stem cells [2]; vortioxetine intra peritoneal 20 mg/Kg for 12 days before graft and continued, n=4, placebo 19%±7.7)	engraftment potential of the injected SC versus placebo (muscle stem cells [2]; vortioxetine intra peritoneal 20 mg/Kg, 12 days pre-treatment)
CNCCC(Oc1ccc(C(F)(F)F)cc1)c1ccccc1 (centres unmarked) [fluoxetine]	39%±6.6	80.7%±8.4	25%	36%±6.2	almost doubled	–	–	–	–	–	–
Cc1ccc(Sc2ccccc2N2CCNCC2)c(C)c1 [vortioxetine, 1-[2-(2,4-Dimethylphenylsulfanyl)phenyl]piperazine]	–	–	–	–	–	21%	80.2%±5.8	77.2%	17%	36.1%±5.7	more than doubled
